Columns and labels:
Assay type in all cases: cell-based
[1] = test system: Hela cells; experiment: Transfection of Hela cell line, DNA vectors; conditions: 75 ng plasmid DNA, GFP cells / total cells
Method in brief: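 Amino lipid/DOPE liposomes in sodium acetate pH 5.6 were complexed with 75 ng psin-EGFP-IRES-Puro plasmid for 30 min at room temperature, then mixed with 3-5×10^4 Hela cells in DMEM/10% FBS at 37° C. Hoechst stain after 20-24 h, imaging after a further 20-24 h. Efficiency = GFP-positive cells / total nuclei.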

[2] = test system: Hela cells; experiment: Transfection of Hela cell line, mRNA vectors; conditions: 50 ng EGFP mRNA per well
Method in brief: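 Transfection efficiency was scored as GFP-fluorescent cells over Hoechst-stained total nuclei, with Lipofectamine2000 as reference reagent. Each well of HeLa cells, grown in DMEM plus 10% FBS, received 50 ng EGFP mRNA.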

[3] = test system: MCF7 cells; experiment: Transfection of MCF7 cell line, DNA vectors; design: concentration or dose not given beside the values; conditions: plasmid DNA, GFP cells / total cells
Experimental: (§1) Cell line: MCF7 cells (ATCC HTB-22)
Medium DMEM supplemented with […] fetal bovine serum
(§2) Screening: cell transfection on 96-well plates
Detection (readout): percentage of the number of GFP fluorescent cells relative to the total number of cells (the total number of cells was determined using nucleus dye Hoechst). Lipofectamine2000 was used as the positive control, according to the manufacturer's instructions.
(§3) Method: the experimental method was basically the same with Example 4.

[4] = test system: MCF7 cells; experiment: Transfection of MCF7 cell line, mRNA vectors; conditions: 50 ng EGFP mRNA per well
Experimental: as §1
Medium: DMEM supplemented with 10 fetal bovine serum (Invitrogen)
as §2
Detection (readout): percentage of the number of GFP fluorescent cells relative to the total number of cells (the total number of cells was determined using nucleus dye Hoechst). Lipofectamine2000 (Invitrogen) was used as the positive control.
Method: the experimental method was basically the same with Example 4, and the mass of EGFP mRNA (TriLink) for transfection was 50 ng per well.

[5] = test system: embryonic stem cells (hESC2); experiment: Screening as DNA vectors in embryonic stem cells, flow cytometry; conditions: 75 ng plasmid DNA, 48 hours after transfection, flow cytometer
Text: (§4) Cell line: embryonic stem cells (hESC2, cultured according to reported methods: Stem Cells, 2005, 23, 544-549)
(§5) Medium: mTeSR1 (STEMCELL)
(§6) Mode of screening: cell transfection on 96-well plates
(§7) Detection (readout): percentage of the number of GFP fluorescent cells relative to the total number of cells. Lipofectamine Stem was used as the positive control.
Method: an 8-channel pipette was used for sample addition. The contents shown were for a single well of a 96-well flat plate.
1. Stem cells were cultured to 3-5×10^4 cells per well in a 96-well plate treated with matrigel.
2. The compound (0.01 mmol) prepared in Example 1 was dissolved in 1 mL of anhydrous ethanol. After ultrasonically dissolved, 10 μL of the resultant amino lipid solution in ethanol was taken and mixed with 5 μL of DOPE solution in ethanol ([…]). The obtained mixture was then added with 35 μL of 0.2 M sodium acetate buffer (pH 5.6), and vortexed at a constant rotating speed for 30 s. Then, 4 μL was taken from the obtained product and added to 46 μL of 0.02 M sodium acetate buffer (pH 5.6), and vortexed at a constant rotating speed for 30 s to form a liposome solution. 5 μL of this liposome solution was mixed with 75 ng of plasmid DNA (pSin-EGFP-IRES-Puro) dissolved in 5 μL of 0.02 M sodium acetate buffer, and allowed to stay at room temperature for 30 min to form a lipid/DNA transfection complex.
3. 10 μL of the lipid/DNA transfection complex was incubated at room temperature for 30 min, followed by addition of 90 μL mTeSR1 medium was added and mixing with a pipette. 100 μL of the mixture was added to separate wells of a 96-well culture plate and placed in an incubator containing 5% CO2 at 37° C.
4. 48 hours after transfection, the cells were digested with 0.05% Trypsin-EDTA. The cells were resuspended in a PBS buffer and filtered. The cell suspension was placed in a flow cytometer and the number of GFP-expressing cells in no less than 2000 cells was measured so as to obtain the absolute efficiency of cell transfection. The relative efficiency of cell transfection was obtained by comparing the cell transfection efficiency with the positive control Lipofectamine Stem.

[6] = test system: embryonic stem cells (hESC2); experiment: Screening as mRNA vectors in embryonic stem cells; conditions: 50 ng EGFP mRNA per well
Experimental: as §4, §5
Mode of screening: cell transfection on 96-well plate
as §7
Method: the experimental method was basically the same with Example 10, and the mass of EGFP mRNA for transfection was 50 ng per well.

[7] = test system: cardiomyocytes; experiment: Screening as DNA vectors in cardiomyocytes; design: concentration or dose not given beside the values; conditions: method as Example 4
Experimental: Cell line: cardiomyocytes (obtained from induced differentiation of hESC according to reported methods: J. Mol. Cell. Cardiol. 2011, 51, 288-298)
(§8) Medium: DMEM supplemented with 10% fetal bovine serum (Invitrogen)
as §6
(§9) Detection (readout): percentage of the number of GFP fluorescent cells relative to the total number of cells (the total number of cells was determined using nucleus dye Hoechst). Lipofectamine Stem (Invitrogen) was used as the positive control, according to the manufacturer's instructions.
as §3

[8] = test system: cardiomyocytes; experiment: Screening as mRNA vectors in cardiomyocytes; conditions: 50 ng EGFP mRNA per well
Experimental: Cell line: cardiomyocytes (obtained from induced differentiation of hESC according to reported methods: J Mol. Cell. Cardiol. 2011, 51, 288-298)
as §8, §6, §9
Method: the experimental method was basically the same with Example 4, and the mass of EGFP mRNA for transfection was 50 ng per well.

[9] = test system: HEK293 cells; experiment: Preliminary screening as DNA vectors, GFP transfection of HEK293 cells; conditions: HEK293 cells; lipid/DOPE liposome with 75 ng plasmid DNA (psin-EGFP-IRES-Puro); number of cells expressing GFP divided by total number of nuclei (Hoechst)
Method in brief: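 First, amino lipid and DOPE were vortexed in sodium acetate buffer (pH 5.6) to form liposomes. Next, these were held with 75 ng EGFP plasmid at room temperature for 30 min. Finally, HEK293 cells were added, cultured at 37° C., Hoechst-stained, and GFP+/total nuclei scored by imaging.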

[10] = test system: HEK293 cells; experiment: Preliminary screening as mRNA vectors, EGFP mRNA transfection of HEK293 cells; conditions: HEK293 cells, 96-well plates, EGFP mRNA 50 ng per well; percentage of GFP fluorescent cells relative to total number of cells (Hoechst)
Method in brief: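 Screening format: EGFP mRNA transfection (50 ng/well) into HEK293 in 10% FBS-supplemented DMEM. Percent green fluorescent cells, normalised to Hoechst nuclear count, gave the value; Lipofectamine2000 was the reference transfectant.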

Compound	Absolute DNA transfection efficiency in Hela cells [1] [%]	Absolute mRNA transfection efficiency in Hela cells [2] [%]	Absolute DNA transfection efficiency in MCF7 cells [3] [%]	Absolute mRNA transfection efficiency in MCF7 cells [4] [%]	Absolute DNA transfection efficiency in embryonic stem cells [5] [%]	Absolute mRNA transfection efficiency in embryonic stem cells [6] [%]	Absolute DNA transfection efficiency in cardiomyocytes [7] [%]	Absolute mRNA transfection efficiency in cardiomyocytes [8] [%]	Absolute DNA transfection efficiency in HEK293 cells [9] [%]	Absolute mRNA transfection efficiency in HEK293 cells [10] [%]
CCCCCCCCCCCNc1nc(NCCN2CCCC2)nc(SCCCCCCCC)n1 [Compound S8N11D3]	26.2	26.2	3.6	8.0	0.2	2.4	0.5	6.2	–	–
CCCCCCCCCCCNc1nc(NCCN2CCN(C)CC2)nc(SCCCCCCCC)n1 [Compound S8N11D5]	26.5	26.5	16.7	9.1	1.1	1.6	3.0	3.7	–	–
CCCCCCCCCNc1nc(NCC2CCN(C)CC2)nc(SCCCCCCCCC)n1 [Compound S9N9D10]	17.6	17.6	38.9	29.6	–	–	–	–	–	–
CCCCCCCCCCCCCCCCSc1nc(NCCN2CCCC2)nc(SCCCCCCCCC)n1 [Compound S9S16D3]	0.0	0.0	14.1	3.0	–	–	–	–	0.0	25.3
CCCCCCCCCCCCCCCCSc1nc(NCCCN(C)C)nc(SCCCCCCCCC)n1 [Compound S9S16D6]	27.8	27.8	39.7	34.2	–	–	–	–	55.4	71.5
CCCCCCCCCCCCCCCCSc1nc(NCCCN2CCOCC2)nc(SCCCCCCCCC)n1 [Compound S9S16D8]	11.6	11.6	6.2	7.7	–	–	–	–	23.2	11.2
CCCCCCCCCCCCCCCCSc1nc(NCCCN2CCN(C)CC2)nc(SCCCCCCCCC)n1 [Compound S9S16D9]	6.9	6.9	23.0	33.8	–	–	–	–	13.9	41.4
CCCCCCCCCCCCCCCCSc1nc(NCC2CCN(C)CC2)nc(SCCCCCCCCC)n1 [Compound S9S16D10]	28.6	28.6	36.9	46.0	–	–	–	–	56.9	66.4
CCCCCCCCCCCSc1nc(NCCCCCCC)nc(NCCN2CCCC2)n1 [Compound S11N7D3]	9.8	9.8	4.4	5.8	–	–	–	–	–	–
CCCCCCCCCCCSc1nc(NCCCCCCC)nc(NCCN2CCN(C)CC2)n1 [Compound S11N7D5]	11.4	11.4	4.7	3.4	–	–	–	–	–	–
CCCCCCCCCCCSc1nc(NCCCCCCC)nc(NCCCN(C)C)n1 [Compound S11N7D6]	17.0	17.0	16.2	4.2	–	–	–	–	–	–
CCCCCCCCCCCSc1nc(NCCCCCCC)nc(NCCCN2CCOCC2)n1 [Compound S11N7D8]	6.7	6.7	1.7	3.2	–	–	–	–	–	–
CCCCCCCCCCCSc1nc(NCCCCCCC)nc(NCCCN2CCN(C)CC2)n1 [Compound S11N7D9]	8.3	8.3	5.8	5.1	–	–	–	–	–	–
CCCCCCCCCCCSc1nc(NCCCCCCC)nc(NCC2CCN(C)CC2)n1 [Compound S11N7D10]	14.7	14.7	10.1	9.0	–	–	–	–	–	–
